Test results published in US12077503B2, “Substituted cyclic amides and their use as herbicides” (FMC CORPORATION, priority 2015, dated 2024).
Where two headings read alike, the source gives them in different places.

Key:
Type in all cases: in vivo
[1] = test system: pigweed (Amaranthus retroflexus); assay: Test A postemergence; conditions: Amaranthus retroflexus, post-emergence, 240 h, 125 g ai/ha, Postemergence; visual injury after approximately 10 d; 0 to 100 scale where 0 is no effect and 100 is complete control; read-out: Plant response rating, Pigweed
Procedure, shortened: (§1)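 Seeds sprayed preemergence with a directed soil spray, or plants at 2 to 10 cm height and one- to two-leaf stage sprayed postemergence, with test chemicals in a non-phytotoxic solvent mixture containing surfactant, in loam soil–sand blend. Injury rated visually against untreated controls after about 10 d in greenhouse, 0 (no effect) to 100 (complete control).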

[2] = test system: corn (Zea mays); assay: Test A postemergence; conditions: Zea mays, post-emergence, 240 h, 125 g ai/ha, Postemergence; visual injury after approximately 10 d; 0 to 100 scale where 0 is no effect and 100 is complete control
Procedure, shortened: as §1

[3] = test system: ryegrass, Italian (Italian ryegrass, Lolium multiflorum); assay: Test A postemergence; conditions: Lolium multiflorum, post-emergence, 240 h, 125 g ai/ha, Postemergence; visual injury after approximately 10 d; 0 to 100 scale where 0 is no effect and 100 is complete control; read-out: Plant response rating, Ryegrass, Italian
Procedure, shortened: as §1

[4] = test system: ragweed (common ragweed, Ambrosia elatior); assay: Test A postemergence; conditions: Ambrosia artemisiifolia, post-emergence, 240 h, 125 g ai/ha, Postemergence; visual injury after approximately 10 d; 0 to 100 scale where 0 is no effect and 100 is complete control; read-out: Plant response rating, Ragweed
Procedure, shortened: as §1

[5] = test system: Kochia (Kochia scoparia); assay: Test A postemergence; conditions: Bassia scoparia, post-emergence, 240 h, 125 g ai/ha, Postemergence; visual injury after approximately 10 d; 0 to 100 scale where 0 is no effect and 100 is complete control; read-out: Plant response rating, Kochia
Procedure, shortened: as §1

[6] = test system: wheat (Triticum aestivum); assay: Test A postemergence; conditions: Triticum aestivum, post-emergence, 240 h, 125 g ai/ha, Postemergence; visual injury after approximately 10 d; 0 to 100 scale where 0 is no effect and 100 is complete control; read-out: Plant response rating, Wheat
Procedure, shortened: as §1

[7] = test system: blackgrass (Alopecurus myosuroides); assay: Test A postemergence; conditions: Alopecurus myosuroides, post-emergence, 240 h, 125 g ai/ha, Postemergence; visual injury after approximately 10 d; 0 to 100 scale where 0 is no effect and 100 is complete control; read-out: Plant response rating, Blackgrass
Procedure, shortened: as §1

[8] = test system: giant foxtail (Setaria faberii); assay: Test A postemergence; conditions: Setaria faberi, post-emergence, 240 h, 125 g ai/ha, Postemergence; visual injury after approximately 10 d; 0 to 100 scale where 0 is no effect and 100 is complete control; read-out: Plant response rating, Foxtail, Giant
Procedure, shortened: as §1

[9] = test system: ducksalad (Heteranthera limosa); assay: Test B flooded paddy test; conditions: Heteranthera limosa, Flood, 250 g ai/ha; scale of 0 to 100 where 0 is no effect and 100 is complete control; read-out: Ducksalad plant response rating
Procedure, shortened: (§2)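 Flooding to 3 cm over soil accompanied treatment, which consisted of adding compound to the standing water around 2-leaf plants; depth was then maintained. Visual assessment versus controls followed at 13 to 15 d (scale 0–100, 0 meaning no effect).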

[10] = test system: rice (Oryra sativa); assay: Test B flooded paddy test; conditions: Oryza sativa, Flood, 250 g ai/ha; scale of 0 to 100 where 0 is no effect and 100 is complete control; read-out: Rice plant response rating
Procedure, shortened: as §2

[11] = test system: sedge, umbrella (small-flower umbrella sedge, Cyperus difformis); assay: Test B flooded paddy test; conditions: Cyperus difformis, Flood, 250 g ai/ha, read-out: Sedge, Umbrella plant response rating
Procedure, shortened: as §2

[12] = test system: barnyardgrass (Echinochloa crus-galli); assay: Test B flooded paddy test; conditions: Echinochloa crus-galli, Flood, 250 g ai/ha; scale of 0 to 100 where 0 is no effect and 100 is complete control; read-out: Barnyardgrass plant response rating
Procedure, shortened: as §2

[13] = test system: pigweed (Amaranthus retroflexus); assay: Test A preemergence; conditions: Amaranthus retroflexus, pre-emergence, 240 h; for pest or weed control at 125 g/ha: 125 g ai/ha, Preemergence, visual injury rating after approximately 10 d, read-out: Pigweed plant response rating (0 to 100 scale, 0 is no effect, 100 is complete control); for pest or weed control at 500 g/ha: 500 g ai/ha, preemergence, visual injury rating about 10 d after treatment, 0 to 100 scale (0 no effect, 100 complete control), read-out: Pigweed plant response rating
[14] = test system: ryegrass, Italian (Italian ryegrass, Lolium multiflorum); assay: Test A preemergence; conditions: Lolium multiflorum, pre-emergence, 240 h; for pest or weed control at 125 g/ha: 125 g ai/ha, Preemergence, visual injury rating after approximately 10 d, read-out: Ryegrass, Italian plant response rating (0 to 100 scale, 0 is no effect, 100 is complete control); for pest or weed control at 500 g/ha: 500 g ai/ha, preemergence, visual injury rating about 10 d after treatment, 0 to 100 scale (0 no effect, 100 complete control), read-out: Ryegrass, Italian plant response rating
Procedure, shortened: as §1

[15] = test system: ragweed (common ragweed, Ambrosia elatior); assay: Test A preemergence; conditions: Ambrosia artemisiifolia, pre-emergence, 240 h; for pest or weed control at 500 g/ha: 500 g ai/ha, preemergence, visual injury rating about 10 d after treatment, 0 to 100 scale (0 no effect, 100 complete control), read-out: Ragweed plant response rating
Procedure, shortened: as §1

[16] = test system: Kochia (Kochia scoparia); assay: Test A preemergence; conditions: Bassia scoparia, pre-emergence, 240 h; for pest or weed control at 125 g/ha: 125 g ai/ha, Preemergence, visual injury rating after approximately 10 d, read-out: Kochia plant response rating (0 to 100 scale, 0 is no effect, 100 is complete control); for pest or weed control at 500 g/ha: 500 g ai/ha, preemergence, visual injury rating about 10 d after treatment, 0 to 100 scale (0 no effect, 100 complete control), read-out: Kochia plant response rating
Procedure, shortened: as §1

[17] = test system: barnyardgrass (Echinochloa crus-galli); assay: Test A preemergence; conditions: Echinochloa crus-galli, pre-emergence, 240 h; for pest or weed control at 125 g/ha: 125 g ai/ha, Preemergence, visual injury rating after approximately 10 d, read-out: Barnyardgrass plant response rating (0 to 100 scale, 0 is no effect, 100 is complete control); for pest or weed control at 500 g/ha: 500 g ai/ha, preemergence, visual injury rating about 10 d after treatment, 0 to 100 scale (0 no effect, 100 complete control), read-out: Barnyardgrass plant response rating
Procedure, shortened: as §1

[18] = test system: giant foxtail (Setaria faberii); assay: Test A preemergence; conditions: Setaria faberi, pre-emergence, 240 h; for pest or weed control at 125 g/ha: 125 g ai/ha, Preemergence, visual injury rating after approximately 10 d, read-out: Foxtail, Giant plant response rating (0 to 100 scale, 0 is no effect, 100 is complete control); for pest or weed control at 500 g/ha: 500 g ai/ha, preemergence, visual injury rating about 10 d after treatment, 0 to 100 scale (0 no effect, 100 complete control), read-out: Foxtail, Giant plant response rating
Procedure, shortened: as §1

[19] = test system: barnyardgrass (Echinochloa crus-galli); assay: Test A postemergence; conditions: Echinochloa crus-galli, post-emergence, 240 h, 125 g ai/ha, Postemergence; visual injury after approximately 10 d; 0 to 100 scale where 0 is no effect and 100 is complete control; read-out: Plant response rating, Barnyardgrass
Procedure, shortened: as §1

[20] = test system: Galium (catchweed bedstraw, Galium aparine); assay: Test A postemergence; conditions: Galium, post-emergence, 240 h, 125 g ai/ha, Postemergence; visual injury after approximately 10 d; 0 to 100 scale where 0 is no effect and 100 is complete control; read-out: Plant response rating, Galium
Procedure, shortened: as §1

Structure (SMILES) | pest or weed control at 125 g/ha [1] | Corn plant response rating (crop injury, 0 = no effect, 100 = complete kill) at 125 g/ha [2] | pest or weed control at 125 g/ha [3] | pest or weed control at 125 g/ha [4] | plant injury at 125 g/ha [6] | pest or weed control at 125 g/ha [7] | pest or weed control at 125 g/ha [8] | pest or weed control at 250 g/ha [9] | pest or weed control at 250 g/ha [10] | pest or weed control at 250 g/ha [12] | pest or weed control at 125 g/ha [13] | pest or weed control at 500 g/ha [13] | pest or weed control at 125 g/ha [14] | pest or weed control at 500 g/ha [14] | pest or weed control at 500 g/ha [15] | pest or weed control at 125 g/ha [16] | pest or weed control at 500 g/ha [16] | pest or weed control at 125 g/ha [17] | pest or weed control at 500 g/ha [17] | pest or weed control at 125 g/ha [18] | also measured
Cc1ccc([C@H]2CN(C)C(=O)[C@@H]2C(=O)Nc2cccc(F)c2C)cc1F [Compound 982] | 0% | 60% | 60% | 20% | 70% | 70% | 90% | 100% | 20% | 75% | 0% | 50% | 90% | 90% | 80% | 50% | 90% | 90% | 90% | 90% | pest or weed control at 125 g/ha [5]: 50%; pest or weed control at 250 g/ha ([11]; scale of 0 to 100 where 0 is no effect and 100 is complete control): 0%; pest or weed control at 500 g/ha [18]: 100%
CC(=O)Oc1ccc(NC(=O)[C@H]2C(=O)N(C)C[C@@H]2c2cc(F)cc(F)c2)c(F)c1 [Compound 996] | 0% | 0% | 0% | 0% | 0% | 0% | 0% | 70% | 0% | 0% | 0% | 0% | 0% | 0% | 0% | 0% | 0% | 0% | 0% | 0% | pest or weed control at 125 g/ha [19]: 0%; pest or weed control at 125 g/ha [20]: 0%; pest or weed control at 250 g/ha ([11]; 0 to 100 scale where 0 is no effect and 100 is complete control): 0%; pest or weed control at 125 g/ha ([15]; 125 g ai/ha, Preemergence, visual injury rating after approximately 10 d, read-out: Ragweed plant response rating (0 to 100 scale, 0 is no effect, 100 is complete control)): 0%; pest or weed control at 500 g/ha [18]: 0%
